Measurements: patent publication US20110263642A1, “METHODS FOR TREATMENT OF MULTIPLE SCLEROSIS” (FibroGen, Inc., priority 2008, published 2011)

Test system: EAE animal model of multiple sclerosis
Experiment: EAE induced by MBP injection in Lewis rats, neurological disease scoring (first study, dosing day 3-21)
Assay type: in vivo
Conditions: for reduction in disease severity compared to vehicle-treated control EAE animals: day 3 to day 21 after MBP injection
Description: Experimental allergic encephalomyelitis (EAE, also referred to as experimental autoimmune encephalomyelitis) is currently the best animal model of human multiple sclerosis (MS). In this model, induction of EAE occurs following, for example, injection of spinal cord homogenate or central nervous system (CNS) antigens, such as myelin basic protein (MBP), myelin olidgodendrocyte glycoprotein, or proteolipid protein. Approximately 10 days following injection of CNS antigens, susceptible rats (e.g., Lewis rats) develop a progressive paralysis similar to that observed in humans.
Female Lewis rats of approximately 220 grams were used in this study (Janvier; Le Genest St Isle, France). Compounds of the invention were formulated in water containing 10% cremophor and 60 mM L-histidine to achieve a final concentration of either 2 mg/ml or 6 mg/ml. Dexamethasone was dissolved in saline at a concentration of 0.1 mg/ml.
Induction of EAE by injection with myelin basic protein (MBP) antigen was performed as follows. Prior to injection with the MBP antigen (day 0), rats were anaesthetized by injection of 60 mg/kg of ketamine (Imalgene500®, Rhone Mérieux, Lyon, France) plus 4 mg/kg of xylazine (Rompum 2%, Bayer Pharma, Kiel, Germany). Rats were then injected in the hind footpad with a total volume of 100 μl of MBP inoculum solution per paw containing 100 μg of MBP antigen (Sigma, L'Isle d'Abeau Chesnes, France) emulsified (1:1) containing incomplete Freund's adjuvant (IFA) (Sigma, L'Isle d'Abeau Chesnes, France) and 500 μg of heat-inactivated mycobacterium tuberculosis (strain H 37 RA from Difco). Control rats were similarly injected with an equivalent volume of inoculum without MBP. […]
Neurological scoring was performed daily from day 7 to day 21 following BP injection. […] Analysis of variance (ANOVA) was performed on data from the measured (clinical score) or the calculated (severity score) parameters. […]
Cumulative EAE disease score, used as a measure of overall disease severity, was determined by adding all disease/neurological scores for each animal over the time course of the experiment.

N#Cc1nc(C(=O)NCC(=O)O)c(O)c2c(Oc3ccccc3)cccc12 [Compound A, [(1-Cyano-4-hydroxy-5-phenoxy-isoquinoline-3-carbonyl)-amino]-acetic acid]
reduction in disease severity compared to vehicle-treated control EAE animals (10 mg/kg p.o. daily): 17%
reduction in disease severity compared to vehicle-treated control EAE animals (30 mg/kg p.o. daily, p<0.05): 46%
cumulative disease score (AUC) (either 10 mg/kg or 30 mg/kg p.o. daily, day 3-21, FIG. 2): reduced
